Source: patent US20260234165A1, “MACROCYCLIC COMPOUNDS, PREPARATION METHOD THEREFOR, AND USE THEREOF” (GENFLEET THERAPEUTICS (SHANGHAI) INC., priority 2004, published 2026)
Where two headings read alike, the source gives them in different places.

Assays:
Format in all cases: cell-based, human
NCI-H441 cells = assay: 3D cell proliferation assay (CellTiter Glo-3D), NCI-H441; conditions: medium with 2% FBS, read-out: H441 AP IC50
Excerpt: MIA PaCa-2 cells were purchased from ATCC, Cat. No. CRL-1420; AsPC-1 cells were purchased from ATCC, Cat. No. CRL-1682; NCI-H441 cells were purchased from ATCC, Cat. No. HTB-174: NCI-H1975 cells were purchased from ATCC. Cat. No. CRL-5908; DMEM medium was purchased from Gibco, Cat. No. 11995-065: RPMI-1040 medium was purchased from Gibco. Cat. No. H 18754093; FBS was purchased from Gibco, Cat. No. 10099-141C. penicillin, streptomycin double-antibiotic solution (PS) was purchased from Gibco, Cat. No. 15140-122; Horse serum was purchased from Gibco. Cat. No. 16050130: trypsin (containing EDTA) was purchased from Gibco, Cat. No. 25200-072; DMSO was purchased from VWRAMRESCO, Cat. No. 0231-500ML; 384-well cell culture plates were purchased from Corning, Cat. No. 3830; white-bottomed, opaque 384-well assay plates were purchased from Corning, Cat. No. 3570. CellTiter Glo-3D) kit was purchased from Promega. Cat. No. G9683; cell counter was purchased from CHEMOMETEC, model: NC-200: microplate reader was purchased from PerkinElmer, model: EnVision.
MIA PaCa-2, a human pancreatic cancer cell strain endogenously containing a KRAS^G12C mutation, was cultured in a complete medium containing DMEM+10% FBS+2.5% Horse serum+1% PS. AsPC-1, a human pancreatic cancer cell strain endogenously containing a […] mutation, was cultured in a complete medium containing RPMI-1640+10% FBS+1% PS. NCI-H441 cells, a human lung cancer cell strain endogenously containing a […] mutation, were cultured in a complete medium containing RPMI-1640+10% FBS+1% PS. NCI-H1975, a KRAS wild-type human lung cancer cell strain whose cell proliferation depends on KRAS activity, was cultured in a complete medium containing RPMI-1640+10% FBS+1% PS.
The cells were digested with trypsin (containing EDTA), collected in their respective low-serum complete media containing 2% FBS (for MIA Paca-2 cell culture: DMEM+2% FBS+0.5% Horse serum+1% PS), and counted. After the cell density was adjusted as required, 200 MIA PaCa-2 cells, 800 AsPC-1 cells, 800 NCI-H441 cells, or 400 NCI-H1975 cells per well were seeded into a 384-well cell culture plate, with the volume of the medium in each well being 45 μL. The cell culture plate was incubated in an incubator at 37° C. with 5% CO2, overnight. A series of 3.16-fold gradient dilutions of a 1000× compound stock solution were prepared with DMSO, and then diluted 100-fold with the complete medium containing 2% FBS described above to give 10- compound stock solutions. On the day after cell seeding, 5 μL of the 10- compound stock solution was added to each cell culture well. As a result, the final concentration of the compound in the cell culture well became 1×, and the DMSO content in the well was 0.1%. In addition to the compound-treated wells described above, cell-containing DMSO control wells (with 5 μL of the complete medium containing 1% DMSO added to each well) and cell-free medium control wells (containing 50 μL of the complete medium with 2% FBS) were also set. The culture plate was incubated in an incubator at 37° C. with 5% CO2 for another 5 days, and then 30 μL of CellTiter-Glo working solution was added to each well. The mixture was well mixed, incubated for 30 min, left to stand at room temperature for 30 min, and then transferred to a white-bottomed, opaque 384-well assay plate at 40 μL/well. The chemiluminescence values (RLU) were measured using a microplate reader, and the cell proliferation inhibition rate for each well was calculated: IR (%)=(RLUDMSO—RLUcompound)/(RLUDMSO−RLUblank)×100%, where RLUDMSO is the average RLU signal value from the DMSO control well samples, RLUblank is the average RLU signal value from the medium control well samples, and RLUcompound is the RLU signal value from the compound-treated well samples. […]

[1] = test system: p-ERK in NCI-H441 cells (KRAS G12V mutation); assay: Cell p-ERK assay (HTRF) in NCI-H441 cells; conditions: NCI-H441 cells, 3 h compound incubation, HTRF p-ERK T202/Y204, read-out: H441 p-ERK IC50
Method: (§1) AsPC-1 cells were purchased from ATCC, Cat. No. CRL-1682: NCI-H441 cells were purchased from ATCC, Cat. No. HTB-174: RPMI-1640 medium was purchased from Gibco, Cat. No. I1875-093: FBS was purchased from Gibco, Cat. No. 10099-141C: penicillin/streptomycin double-antibiotic solution (PS) was purchased from Gibco, Cat. No. 15140-122: trypsin (containing EDTA) was purchased from Gibco, Cat. No. 25200-072; DMSO was purchased from VWRAMRESCO, Cat. No. 0231-500ML; 96-well cell culture plates were purchased from Corning, Cat. No. 3599: white-bottomed, opaque 96-well plates were purchased from Cisbio, Cat. No. 66PL96025; Advance ERK phospho-T202/Y204 kit was purchased from Cisbio, Cat. No. 64AERPEH; cell counter was purchased from CHEMOMETEC, model: NC-200; microplate reader was purchased from PerkinElmer, model: EnVision.
(§2) AsPC-1, a human pancreatic cancer cell strain endogenously containing a KRAS^G12D mutation, was cultured in a complete medium containing RPMI-1640+10% FBS+1% PS. NCI-H441, a human non-small cell lung cancer cell strain endogenously containing a KRAS^G12V mutation, was cultured in a complete medium containing RPMI-1640+10% FBS+1% PS.
(§3) The cells were digested with trypsin (containing EDTA), collected in their corresponding complete media, and counted. The density of the cell suspensions was adjusted with their corresponding complete media, and 10000 AsPC-1 cells or 20000 NCI-H441 cells per well were seeded into a 96-well cell culture plate, with the volume of the medium in each well being 80 μL.
(§4) The cell culture plate was incubated in an incubator at 37° C. with 5% CO2 overnight. A series of 3.16-fold gradient dilutions of a 1000- compound stock solution were prepared with DMSO, and then diluted 200-fold with the complete medium described above to give 5′ compound stock solutions. On the day after cell seeding, 20 μL of the 5× compound stock solution was added to each cell culture well. As a result, the final concentration of the compound in the cell culture well became 1×, and the DMSO content in the well was 0.1%. In addition to the compound-treated wells described above, cell-containing DMSO control wells were also set. A complete medium containing 0.5% DMSO was added at 20 μL/well. After the mixture was well mixed, the culture plate was incubated in the incubator at 37° C. with 5% CO2 for another 3 h. The medium was then removed from the culture wells, and 50 μL of cell lysis buffer (from Advance ERK phospho-T202,Y204 kit) was added to each well. The mixture was well mixed and incubated for 30 min. Then, 16 μL of the mixture was transferred to a white-bottomed, opaque 96-well assay plate, and separately, 16 μL of cell lysis buffer was added to additional wells (serving as blank wells) in the assay plate. After the transfer was completed, 4 μL of p-ERK HTRF antibody mixture (from Advance ERK phospho-T202/Y204 kit) was added to each well of the assay plate, followed by a 4-hour incubation. The HTRF signal values (RLU) were then measured using a microplate reader, and the inhibition rate of the compound against p-ERK levels was calculated as follows: IR (%)=(RLUDMSO−RLUcompound)/(RLUDMSO−RLUblank)×100%, where RLUDMSO is the average HTRF signal value from the DMSO control well samples, RLUblank is the average HTRF signal value from the blank well samples, and RLUcompound is the HTRF signal value from the compound-treated well samples. Using an XLfit software, the IR (%) values were plotted against the logarithm of the compound concentrations, and the dose-response curves were fitted using the four-parameter method to calculate the IC50 values.

[2] = test system: p-ERK in AsPC-1 cells (KRAS G12D mutation); assay: Cell p-ERK assay (HTRF) in AsPC-1 cells; conditions: AsPC-1 cells, 3 h compound incubation, HTRF p-ERK T202/Y204, read-out: AsPC-1 p-ERK IC50
Method: as §1, §2, §3, §4

[3] = Homo sapiens, NCI-H441, 3D cell proliferation (CellTiter Glo-3D)
[4] = 3D cell proliferation (CellTiter Glo-3D)

| SMILES | IC50 (NCI-H441 cells; [3]) [nM] | IC50 ([1]; Homo sapiens, NCI-H441, 3 h) [nM] | IC50 [1] [nM] | also measured |
| --- | --- | --- | --- | --- |
| CCn1c(-c2cc(N3CCN(C)CC3)cnc2[C@H](C)OC)c2c3cc(ccc31)-c1csc(n1)C[C@H](Nc1nnc3n1CCCC3)C(=O)N1CCC[C@H](N1)C(=O)OCC(C)(C)C2 (atropisomer, axis not shown; (Ra)) [Compound Z423] | 74.2 | 33.3 |  |  |
| CCn1c(-c2cc(N3CCN(C)CC3)cnc2[C@H](C)OC)c2c3cc(ccc31)-c1csc(n1)C[C@H](Nc1nnc3n1CC(C)CC3)C(=O)N1CCC[C@H](N1)C(=O)OCC(C)(C)C2 (atropisomer, axis not shown; (Ra)) [Compound Z431] | 101 | 44.4 |  |  |
| CCn1c(-c2cc(C#CCN3CCCOCC3)c[n+]([O-])c2C(C)C)c2c3cc(ccc31)-c1csc(n1)C[C@H](NC(=O)[C@H]1[C@H](C)[C@@H]1C)C(=O)N1CCC[C@H](N1)C(=O)OCC(C)(C)C2 (atropisomer, axis not shown; (Ra)) [Compound Z950, (1r,2R,3S)—N-((6^3S,4S,Z)—(Ra)-1^2-(5-(3-(1,4-oxazepan-4-yl)prop-1-yn-1-yl)-2-isopropylpyridin-1-oxide-3-yl)-1^1-ethyl-10,10-dimethyl-5,7-dioxo-6^1,6^2,6^3,6^4,6^5,6^6-hexahydro-1^1H-8-oxa-2(4,2)-thiazola-1(5,3)-indola-6(1,3)-pyridazinacycloundecaphane-4-yl)-2,3-dimethylcyclopropane-1-carboxamide] |  | 0.16 |  | IC50 ([2]; Homo sapiens, ASPC1, 3 h): 0.27 nM |
| CCn1c(-c2cc(C#CCN3CCC(C#N)CC3)cnc2[C@H](C)OC)c2c3cc(ccc31)-c1csc(n1)C[C@H](Nc1nnc3cc(C)ccn13)C(=O)N1CCC[C@H](N1)C(=O)OCC(C)(C)C2 (atropisomer, axis not shown; (Ra)) [Compound Z959] |  | 1.01 |  | IC50 ([2]; Homo sapiens, ASPC1, 3 h): 4.15 nM |
| CCn1c(-c2cc(C#CCN3CCS(=O)(=O)CC3)cnc2C(C)OC)c2c3cc(ccc31)-c1csc(n1)CC(NC(=O)CC1CC1)C(=O)N1CCCC(N1)C(=O)OCC(C)(C)C2 (atropisomer, axis not shown; (Ra)) [Compound Z962, 2-cyclopropyl-N-((6^3S,4S,Z)—(Ra)-1^2-(5-(3-(1,1-dioxidothiomorpholino)prop-1-yn-1-yl)-2-((S)-1-methoxyethyl)pyridin-3-yl)-1^1-ethyl-10,10-dimethyl-5,7-dioxo-6^1,6^2,6^3,6^4,6^5,6^6-hexahydro-1^1H-8-oxa-2(4,2)-thiazola-1(5,3)-indola-6(1,3)-pyridazinacycloundecaphane-4-yl)acetamide] |  |  | 0.15 | IC50 [2]: 0.26 nM |
| CCn1c(-c2cc(OCCN3CC[S+]([O-])CC3)cnc2[C@H](C)OC)c2c3cc(ccc31)-c1csc(n1)C[C@H](NC(=O)[C@H]1[C@H](C)[C@@H]1C)C(=O)N1CCC[C@H](N1)C(=O)OCC(C)(C)C2 (atropisomer, axis not shown; (Sa)) [Compound Z600-1] |  |  | 82.7 | IC50 (NCI-H441 cells; [4]): 96.3 nM |
| CCn1c(-c2cc(C#CCN3CCCOCC3)cnc2[C@H](C)OC)c2c3cc(ccc31)-c1csc(n1)C[C@H](NC(=O)[C@H](C(C)C)N(C)[S@](C)(=O)=NC)C(=O)N1CCC[C@H](N1)C(=O)OCC(C)(C)C2 (single isomer, unassigned) [Compound Z912-1] | 5.13 | 2.61 |  |  |
| CCn1c(-c2cc(C#CCN3CCCOCC3)cnc2[C@H](C)OC)c2c3cc(ccc31)-c1csc(n1)C[C@H](NC(=O)[C@H](C(C)C)N(C)[S@@](C)(=O)=NC)C(=O)N1CCC[C@H](N1)C(=O)OCC(C)(C)C2 (single isomer, unassigned) [Compound Z912-2] |  |  | 3.41 | IC50 (NCI-H441 cells; [4]): 8.59 nM |
